Consider 17 compounds from patent US12391641B2, “Prostaglandin EP4 receptor antagonist compounds” (NXERA PHARMA UK LIMITED, priority 2019, dated 2025).

Each structure is given as a SMILES string.

In the assay the target is T1, Human prostaglandin E2 receptor 4 (EP4) (Homo sapiens, UniProt P35408).
T1 construct: expressed in transfected cells; host or cells: HEK293 cells transduced with EP4 BacMam virus
T1 sequence (P35408 whole entry): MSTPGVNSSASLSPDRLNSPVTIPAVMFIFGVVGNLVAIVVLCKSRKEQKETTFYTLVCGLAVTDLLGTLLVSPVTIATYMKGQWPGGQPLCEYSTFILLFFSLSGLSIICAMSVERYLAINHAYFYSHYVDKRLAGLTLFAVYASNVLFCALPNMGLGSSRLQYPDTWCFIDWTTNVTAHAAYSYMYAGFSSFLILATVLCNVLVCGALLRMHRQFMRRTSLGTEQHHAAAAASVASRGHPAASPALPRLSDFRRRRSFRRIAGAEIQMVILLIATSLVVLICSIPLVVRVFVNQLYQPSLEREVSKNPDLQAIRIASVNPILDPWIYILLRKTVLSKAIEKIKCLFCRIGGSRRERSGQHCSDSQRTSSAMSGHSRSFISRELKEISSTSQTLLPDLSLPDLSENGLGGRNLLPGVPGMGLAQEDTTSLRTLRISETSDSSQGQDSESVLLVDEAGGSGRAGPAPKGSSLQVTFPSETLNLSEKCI
The experiment in a line: cAMP Gs Functional Assay (HTRF cAMP dynamic-2), antagonism of PGE2. The class given is cell-based. Particulars: HEK293 cells transfected with EP4 BacMam virus; PGE2 challenge at EC80 (7 nM); pIC50 converted to functional pKb with a modified Cheng Prussoff equation; read-out: Human EP4 fpKb (converted). The gist of the method:
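HEK293 cells transiently expressing human EP4 via BacMam (36 h), preincubated with compound 30 min at 37 °C in DMEM + 0.5 mM IBMX, 5000 cells/well, then challenged with EC80 PGE2 (7 nM). cAMP read by HTRF; pIC50 converted to pKb by modified Cheng-Prusoff using agonist EC50 and challenge concentration.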
In general terms: Time-resolved FRET reads energy transfer from a long-lived donor to a nearby acceptor.
As to `CC(C)[C@@H](OCc1ccnc(OC(F)F)c1)C(=O)N[C@@H](C)c1ccc(C(=O)O)cc1` [Example 74, 4-((S)-1-((R)-2-((2-(difluoromethoxy)pyridin-4-yl)methoxy)-3-methylbutanamido)ethyl)benzoic acid], the Ki was 0.447 nM.
Next, `CC(C)[C@@H](OCc1ccc(C(F)F)nc1)C(=O)NC1(c2ccc(C(=O)O)cc2)CC1` [Example 84, (R)-4-(1-(2-((6-(difluoromethyl)pyridin-3-yl)methoxy)-3-methylbutanamido)cyclopropyl)benzoic acid]: 11.2 nM.
Next, `CC(C)[C@@H](OCc1ccc2c(c1)OC(F)(F)O2)C(=O)NC1(c2ccc(C(=O)O)cc2)CC1` [Example 55, (R)-4-(1-(2-((2,2-difluorobenzo[d][1,3]dioxol-5-yl)methoxy)-3-methylbutanamido)cyclopropyl)benzoic acid]: 0.479 nM; `CC(C)[C@@H](OCc1ccc(C(F)(F)F)cc1)C(=O)NC1(c2ccc(C(=O)O)cc2)CC1` [Example 2, (R)-4-(1-(3-methyl-2-((4-(trifluoromethyl)benzyl)oxy)butanamido)cyclopropyl)benzoic acid]: 0.891 nM; `CC(O[C@@H](C(=O)N[C@@H](C)c1ccc(C(=O)O)cc1)C(C)C)c1ccc(C(F)(F)F)cc1` (mixture of isomers) [Example 51, 4-((1S)-1-((2R)-3-methyl-2-(1-(4-(trifluoromethyl)phenyl)ethoxy)butanamido)ethyl)benzoic acid]: 417 nM.
With `CC(C)[C@@H](OCc1ccc(O)cc1)C(=O)N[C@@H](C)c1ccc(C(=O)O)cc1` [Example 41, 4-((S)-1-((R)-2-((4-hydroxybenzyl)oxy)-3-methylbutanamido)ethyl)benzoic acid] the figure was above 12900 nM.
Take `O=C(O)c1ccc(C2(NC(=O)C(OCc3ccc(F)c(F)c3)C3CCC3)CC2)cc1` (centres unmarked) [Example 97, 4-(1-(2-cyclobutyl-2-((3,4-difluorobenzyl)oxy)acetamido)cyclopropyl)benzoic acid]: the Ki is 12.6 nM.
Next, `CC(C)C(OCc1cccc(F)c1)C(=O)N[C@@H](C)c1ccc(C(=O)O)cc1` (single isomer, unassigned) [Example 17]: 3.02 nM; `CC(C)[C@@H](OCc1ccnc(OC(F)F)c1)C(=O)NC1(c2ccc(C(=O)O)cc2)CC1` [Example 67, (R)-4-(1-(2-((2-(difluoromethoxy)pyridin-4-yl)methoxy)-3-methylbutanamido)cyclopropyl)benzoic acid]: 0.575 nM; `CC(C)[C@@H](OCc1cccc(C2CC2)c1)C(=O)N[C@@H](C)c1ccc(-c2nnn[nH]2)cc1` [Example 83, (R)—N—((S)-1-(4-(1H-tetrazol-5-yl)phenyl)ethyl)-2-((3-cyclopropylbenzyl)oxy)-3-methylbutanamide]: 0.186 nM.
As for `CC(C)[C@@H](OCc1ccn2ccnc2c1)C(=O)N[C@@H](C)c1ccc(C(=O)O)cc1` [Example 66, 4-((S)-1-((R)-2-(imidazo[1,2-a]pyridin-7-ylmethoxy)-3-methylbutanamido)ethyl)benzoic acid], the Ki is 34.7 nM.
Consider `CC(C)[C@@H](OCc1cc(OC(F)F)ccn1)C(=O)N[C@@H](C)c1ccc(C(=O)O)cc1` [Example 77, 4-((S)-1-((R)-2-((4-(difluoromethoxy)pyridin-2-yl)methoxy)-3-methylbutanamido)ethyl)benzoic acid], for which the Ki is 27.5 nM.
With `CC(C)[C@@H](OCc1ccc(S(C)(=O)=O)cc1)C(=O)N[C@@H](C)c1ccc(C(=O)O)cc1` [Example 10, 4-((S)-1-((R)-3-methyl-2-((4-(methylsulfonyl)benzyl)oxy)butanamido)ethyl)benzoic acid], the Ki was 20.4 nM.
With `CC(C)[C@@H](OCc1ccc(F)c(Cl)c1)C(=O)NC1(c2ccc(C(=O)O)cc2)CC1` [Example 78, (R)-4-(1-(2-((3-chloro-4-fluorobenzyl)oxy)-3-methylbutanamido)cyclopropyl)benzoic acid] the figure was above 20900 nM; with `C[C@H](NC(=O)C(OCc1ccc(C(F)(F)F)cc1)C1CCC1)c1ccc(C(=O)O)cc1` (mixture of isomers) [Example 92, 4-((1S)-1-(2-cyclobutyl-2-((4-(trifluoromethyl)benzyl)oxy)acetamido)ethyl)benzoic acid], 4.68 nM.
Consider `CC(C)[C@@H](OCc1cccc(S(=O)(=O)C2CC2)c1)C(=O)N[C@@H](C)c1ccc(C(=O)O)cc1` [Example 90, 4-((S)-1-((R)-2-((3-(cyclopropylsulfonyl)benzyl)oxy)-3-methylbutanamido)ethyl)benzoic acid], for which the Ki was 29.5 nM.
Next, `CC(C)[C@@H](OCc1cccc(OC(F)F)c1)C(=O)NC1(c2ccc(C(=O)O)cc2)CC1` [Example 52, (R)-4-(1-(2-((3-(difluoromethoxy)benzyl)oxy)-3-methylbutanamido)cyclopropyl)benzoic acid]: 0.389 nM.
